17 compounds from US8247377B2, “Non-steroidal glucocorticoid inhibitors and their use in treating inflammation, allergy and auto-immune conditions” (Glaxo Group Limited, priority 2006, dated 2012) can be followed below.

One test concerns MMTV promoter. Briefly: MMTV agonist assay in A549 MMTV cells. Format: cell-based. Particulars: Homo sapiens, A549, 6 h, >85% = full agonist, >20% and <85% = partial or efficacy selective agonist, read-out: average maximum asymptote in the MMTV agonist assay. The procedure, abridged: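 A549 cells stably carrying an MMTV promoter-driven renilla luciferase reporter were exposed to compound for 6 h at 37 °C in DMEM with 10% FCS and 25 mM HEPES. Luminescence read after renilla substrate addition; pEC50 and maximum asymptote estimated from dose-response curves.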

Another test deals with T1, glucocorticoid receptor (Homo sapiens, UniProt P04150).
T1 construct: a partially purified full length glucocorticoid receptor
T1 sequence (P04150 1-777): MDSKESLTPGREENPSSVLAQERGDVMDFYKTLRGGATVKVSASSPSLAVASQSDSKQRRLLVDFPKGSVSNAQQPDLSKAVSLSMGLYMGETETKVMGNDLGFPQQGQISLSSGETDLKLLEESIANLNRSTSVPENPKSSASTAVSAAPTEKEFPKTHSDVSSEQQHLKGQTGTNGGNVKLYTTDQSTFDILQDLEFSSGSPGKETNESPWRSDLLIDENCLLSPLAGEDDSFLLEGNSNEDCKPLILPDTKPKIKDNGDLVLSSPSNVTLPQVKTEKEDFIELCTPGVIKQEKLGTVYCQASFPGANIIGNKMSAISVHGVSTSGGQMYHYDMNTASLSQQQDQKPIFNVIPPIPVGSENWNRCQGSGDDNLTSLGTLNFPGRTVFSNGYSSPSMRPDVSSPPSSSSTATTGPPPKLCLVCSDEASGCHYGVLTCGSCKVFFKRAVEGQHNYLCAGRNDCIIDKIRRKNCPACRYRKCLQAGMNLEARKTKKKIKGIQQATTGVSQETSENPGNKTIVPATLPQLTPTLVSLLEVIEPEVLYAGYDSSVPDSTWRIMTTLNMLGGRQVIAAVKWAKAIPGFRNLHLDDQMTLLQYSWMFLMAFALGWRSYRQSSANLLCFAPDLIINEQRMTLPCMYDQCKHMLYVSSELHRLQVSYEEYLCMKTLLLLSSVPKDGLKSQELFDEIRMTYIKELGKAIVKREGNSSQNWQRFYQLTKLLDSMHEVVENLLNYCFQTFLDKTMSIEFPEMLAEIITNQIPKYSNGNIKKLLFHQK
Briefly: Glucocorticoid receptor binding assay (fluorescence polarisation). Particulars: competition with Alexa 555 fluorescently-labelled dexamethasone derivative, full length glucocorticoid receptor; read-out: glucocorticoid binding pIC50 (converted). The procedure, abridged: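 Compounds in DMSO incubated with fluorescent dexamethasone and partially purified full-length GR plus stabilising buffer components, 2 hrs at room temperature in the dark. Displacement read as decrease in fluorescence polarisation; pIC50 estimated from dose-response curves.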
A general note: Fluorescence polarisation rises when a labelled molecule tumbles more slowly, as on binding a larger partner.

The structures appear in SMILES notation.

On to `CCN(CC(O)(CNC(=O)c1cnn(-c2c(F)cccc2F)c1N)C(F)(F)F)C(=O)c1c(F)cccc1F` (racemic) [Example 37 (racemic), 5-amino-1-(2,6-difluorophenyl)-N-(2-{[[(2,6-difluorophenyl)carbonyl](ethyl)amino]methyl}-3,3,3-trifluoro-2-hydroxypropyl)-1H-pyrazole-4-carboxamide], for which the Emax with MMTV promoter was above 85%. The IC50 at glucocorticoid receptor was at most 316 nM.

As to `CCN(CC(O)(CNC(=O)c1cnn(-c2cccc(F)c2)c1N)C(F)(F)F)C(=O)c1c(F)cccc1F` (racemic) [Example 38 (racemic), 5-amino-N-(2-{[[(2,6-difluorophenyl)carbonyl](ethyl)amino]methyl}-3,3,3-trifluoro-2-hydroxypropyl)-1-(3-fluorophenyl)-1H-pyrazole-4-carboxamide], the Emax in the test on MMTV promoter is above 85%. For the same compound, the IC50 on glucocorticoid receptor is at most 316 nM.

For `CCN(CC(O)(CNC(=O)c1cnn(-c2ccc(Cl)cc2)c1N)C(F)(F)F)C(=O)c1c(F)cccc1F` (racemic) [Example 39 (racemic), 5-amino-1-(4-chlorophenyl)-N-(2-{[[(2,6-difluorophenyl)carbonyl](ethyl)amino]methyl}-3,3,3-trifluoro-2-hydroxypropyl)-1H-pyrazole-4-carboxamide], in the test on MMTV promoter, the Emax is above 85%. The IC50 at glucocorticoid receptor is at most 316 nM.

Consider `CCN(CC(O)(CNC(=O)c1cnn(-c2cccc(Cl)c2)c1N)C(F)(F)F)C(=O)c1c(F)cccc1F` (racemic) [Example 41 (racemic), 5-amino-1-(3-chlorophenyl)-N-(2-{[[(2,6-difluorophenyl)carbonyl](ethyl)amino]methyl}-3,3,3-trifluoro-2-hydroxypropyl)-1H-pyrazole-4-carboxamide], for which the Emax in the test with MMTV promoter is above 85%. Besides, on glucocorticoid receptor, the IC50 is at most 316 nM.

For `CCN(CC(O)(CNC(=O)c1cnn(-c2ccccc2F)c1N)C(F)(F)F)C(=O)c1c(F)cccc1F` (racemic) [Example 42 (racemic), 5-amino-N-(2-{[[(2,6-difluorophenyl)carbonyl](ethyl)amino]methyl}-3,3,3-trifluoro-2-hydroxypropyl)-1-(2-fluorophenyl)-1H-pyrazole-4-carboxamide], the Emax in the test on MMTV promoter is above 85%. The IC50 on glucocorticoid receptor was at most 316 nM.

For `Nc1c(C(=O)NCC(O)(CNC(=O)c2c(C(F)F)cccc2C(F)F)C(F)(F)F)cnn1-c1ccc(F)cc1` (racemic) [Example 43 (racemic), 5-Amino-N-{2-[({[2,6-bis(difluoromethyl)phenyl]carbonyl}amino)methyl]-3,3,3-trifluoro-2-hydroxypropyl}-1-(4-fluorophenyl)-1H-pyrazole-4-carboxamide], the Emax in the test with MMTV promoter was 20 to 85%. For the same compound, the IC50 at glucocorticoid receptor was at most 316 nM.

For `Nc1c(C(=O)NCC(O)(CNC(=O)c2c(Br)cccc2C(F)(F)F)C(F)(F)F)cnn1-c1ccc(F)cc1` (racemic) [Example 45 (racemic), 5-Amino-N-{2-[({[2-bromo-6-(trifluoromethyl)phenyl]carbonyl}amino)methyl]-3,3,3-trifluoro-2-hydroxypropyl}-1-(4-fluorophenyl)-1H-pyrazole-4-carboxamide], the Emax in the test on MMTV promoter was 20 to 85%. Also, the IC50 on glucocorticoid receptor was at most 316 nM.

On to `Nc1c(C(=O)NCC(O)(CNC(=O)c2c(Cl)cccc2Cl)C(F)(F)F)cnn1-c1ccc(F)cc1` (single isomer, unassigned) [Example 3 Enantiomer 1, 5-Amino-N-[2-({[(2,6-dichlorophenyl)carbonyl]amino}methyl)-3,3,3-trifluoro-2-hydroxypropyl]-1-(4-fluorophenyl)-1H-pyrazole-4-carboxamide], for which, in the test on MMTV promoter, the Emax lay in the range of 20 to 85%. Besides, the IC50 on glucocorticoid receptor was at most 316 nM.

`CCN(CC(O)(CNC(=O)c1cnn(-c2ccc(F)cc2)c1N)C(F)(F)F)C(=O)c1ccccc1S(C)(=O)=O` (single isomer, unassigned) [Example 10 Enantiomer 1, 5-Amino-N-{2-[(ethyl{[2-(methylsulfonyl)phenyl]carbonyl}amino)methyl]-3,3,3-trifluoro-2-hydroxypropyl}-1-(4-fluorophenyl)-1H-pyrazole-4-carboxamide]: the Emax in the test on MMTV promoter was above 85%. Also, at glucocorticoid receptor, the IC50 is at most 316 nM.

In the case of `Nc1c(C(=O)NCC(O)(CNC(=O)c2c(Br)cccc2Br)C(F)(F)F)cnn1-c1ccc(F)cc1` (single isomer, unassigned) [Example 11 Enantiomer 1, 5-Amino-N-[2-({[(2,6-dibromophenyl)carbonyl]amino}methyl)-3,3,3-trifluoro-2-hydroxypropyl]-1-(4-fluorophenyl)-1H-pyrazole-4-carboxamide], the Emax in the test on MMTV promoter is 20 to 85%. Also, the IC50 on glucocorticoid receptor is at most 316 nM.

As to `Nc1c(C(=O)NCC(O)(CNC(=O)c2c(Cl)cccc2Br)C(F)(F)F)cnn1-c1ccc(F)cc1` (single isomer, unassigned) [Example 12 Enantiomer 1, 5-Amino-N-[2-({[(2-bromo-6-chlorophenyl)carbonyl]amino}methyl)-3,3,3-trifluoro-2-hydroxypropyl]-1-(4-fluorophenyl)-1H-pyrazole-4-carboxamide], the Emax in the test with MMTV promoter lay within 20 to 85%. The IC50 on glucocorticoid receptor was at most 316 nM.

Regarding `Nc1c(C(=O)NCC(O)(CNC(=O)c2c(F)cccc2Br)C(F)(F)F)cnn1-c1ccc(F)cc1` (single isomer, unassigned) [Example 13 Enantiomer 1, 5-Amino-N-[2-({[(2-bromo-6-fluorophenyl)carbonyl]amino}methyl)-3,3,3-trifluoro-2-hydroxypropyl]-1-(4-fluorophenyl)-1H-pyrazole-4-carboxamide], the Emax with MMTV promoter lay within 20 to 85%. The IC50 on glucocorticoid receptor was at most 316 nM.

On to `Nc1c(C(=O)NCC(O)(CNC(=O)c2c(Cl)cccc2OC(F)F)C(F)(F)F)cnn1-c1ccc(F)cc1` (single isomer, unassigned) [Example 14 Enantiomer 1, 5-Amino-N-(2-{[({2-chloro-6-[(difluoromethyl)oxy]phenyl}carbonyl)amino]methyl}-3,3,3-trifluoro-2-hydroxypropyl)-1-(4-fluorophenyl)-1H-pyrazole-4-carboxamide], for which the Emax with MMTV promoter was in the range of 20 to 85%. Further, the IC50 at glucocorticoid receptor was at most 316 nM.

For the compound `Nc1c(C(=O)NCC(O)(CNC(=O)c2c(C(F)F)cccc2C(F)F)C(F)(F)F)cnn1-c1ccc(F)cc1` (single isomer, unassigned) [Example 43 Enantiomer 1, 5-Amino-N-{2-[({[2,6-bis(difluoromethyl)phenyl]carbonyl}amino)methyl]-3,3,3-trifluoro-2-hydroxypropyl}-1-(4-fluorophenyl)-1H-pyrazole-4-carboxamide], in the test on MMTV promoter, the Emax is 20 to 85%. Besides, the IC50 at glucocorticoid receptor is at most 316 nM.

In the case of `Nc1c(C(=O)NCC(O)(CNC(=O)c2c(Cl)cccc2C(F)(F)F)C(F)(F)F)cnn1-c1ccc(F)cc1` (single isomer, unassigned) [Example 44 Enantiomer 1, 5-Amino-N-{2-[({[2-chloro-6-(trifluoromethyl)phenyl]carbonyl}amino)methyl]-3,3,3-trifluoro-2-hydroxypropyl}-1-(4-fluorophenyl)-1H-pyrazole-4-carboxamide], the Emax in the test with MMTV promoter lay in the range of 20 to 85%. The IC50 on glucocorticoid receptor was at most 316 nM.

As to `Nc1c(C(=O)NCC(O)(CNC(=O)c2c(Br)cccc2C(F)(F)F)C(F)(F)F)cnn1-c1ccc(F)cc1` (single isomer, unassigned) [Example 45 Enantiomer 1, 5-Amino-N-{2-[({[2-bromo-6-(trifluoromethyl)phenyl]carbonyl}amino)methyl]-3,3,3-trifluoro-2-hydroxypropyl}-1-(4-fluorophenyl)-1H-pyrazole-4-carboxamide], the Emax with MMTV promoter was in the range of 20 to 85%. For the same compound, at glucocorticoid receptor, the IC50 was at most 316 nM.

For the compound `Nc1c(C(=O)NCC(O)(CNC(=O)c2c(F)cccc2OC(F)F)C(F)(F)F)cnn1-c1ccc(F)cc1` (single isomer, unassigned) [Example 48 Enantiomer 1, 5-Amino-N-(2-{[({2-[(difluoromethyl)oxy]-6-fluorophenyl}carbonyl)amino]methyl}-3,3,3-trifluoro-2-hydroxypropyl)-1-(4-fluorophenyl)-1H-pyrazole-4-carboxamide], the Emax with MMTV promoter lay within 20 to 85%. Also, at glucocorticoid receptor, the IC50 was at most 316 nM.
